Legend:
Details in all cases: 72 h
MV4-11 [1] = system: MV4-11
Method in brief: (§1)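 The IC50 was read from log-logistic dose–response fits. Fifteen myeloid leukaemia lines were exposed for 72 h at 37 °C with 5% CO2 to five tenfold doses from 1 to 10,000 nM in duplicate. ATP luminescence, normalised to vehicle and to a 10 µM positive control, was fitted with four parameters.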

K-562 [2] = system: K-562
Method in brief: as §1

NOMO-1 [3] = system: NOMO-1
Method in brief: as §1

ML-2 [4] = system: ML-2
Method in brief: as §1

KCL-22 [5] = system: KCL-22
Method in brief: as §1

KG-1 [6] = system: KG-1
Method in brief: as §1

LAMA-84 [7] = system: LAMA-84
Method in brief: as §1

KU-812 [8] = system: KU-812
Method in brief: as §1

SHI-1 [9] = system: SHI-1
Method in brief: as §1

Mono-Mac-6 [10] = system: Mono-Mac-6
Method in brief: as §1

BV-173 [11] = system: BV-173
Method in brief: as §1

HL-60 [12] = system: HL-60
Method in brief: as §1

MOLM-13 [13] = system: MOLM-13
Method in brief: as §1

THP-1 [14] = system: THP-1
Method in brief: as §1

HEL [15] = system: HEL
Method in brief: as §1

MV4-11 [16] = experiment: cell viability (% survival relative to DMSO control, bortezomib = 0%); higher = less cytotoxic
Method in brief: (§2)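 Fifteen myeloid leukaemia cell lines were exposed to compounds at 1, 10, 100, 1000 or 10000 nM in 384-well plates for 72 h at 37 °C and 5% CO2. Viability was read by CellTiter-Glo luminescence and normalised, with vehicle as 100% and a 10 µM positive control as 0%. Values are percent survival averaged over duplicates.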

K-562 [17] = experiment: as above
Method in brief: as §2

NOMO-1 [18] = experiment: as above
Method in brief: as §2

ML-2 [19] = experiment: as above
Method in brief: as §2

KCL-22 [20] = experiment: as above
Method in brief: as §2

KG-1 [21] = experiment: as above
Method in brief: as §2

LAMA-84 [22] = experiment: as above
Method in brief: as §2

KU-812 [23] = experiment: as above
Method in brief: as §2

SHI-1 [24] = experiment: as above
Method in brief: as §2

Mono-Mac-6 [25] = experiment: as above
Method in brief: as §2

BV-173 [26] = experiment: as above
Method in brief: as §2

HL-60 [27] = experiment: as above
Method in brief: as §2

MOLM-13 [28] = experiment: as above
Method in brief: as §2

THP-1 [29] = experiment: as above
Method in brief: as §2

HEL [30] = experiment: as above
Method in brief: as §2

Cc1[nH]nc(C(F)(F)F)c1Cc1sc2c(c1C(=O)N1C[C@](C)(O)CO1)c(=O)n(C)c(=O)n2C(C)C [AZD3965]
Details | IC50 (cell viability) [µM]
BV-173 [11] | 0.0362
HEL [15] | > 10
HL-60 [12] | > 10
K-562 [2] | 0.00627
KCL-22 [5] | > 10
KG-1 [6] | > 10
KU-812 [8] | > 10
LAMA-84 [7] | > 10
ML-2 [4] | > 10
MOLM-13 [13] | > 10
MV4-11 [1] | > 10
Mono-Mac-6 [10] | > 10
NOMO-1 [3] | > 10
SHI-1 [9] | > 10
THP-1 [14] | > 10

cell viability [%]
Details | 1 nM | 10 nM | 100 nM | 1000 nM | 10000 nM
BV-173 [26] | 91.4 | 103 | 4.97 | 0.26 | 0.551
HEL [30] | 84.2 | 108 | 116 | 111 | 109
HL-60 [27] | 79.9 | 95.6 | 111 | 113 | 115
K-562 [17] | 101 | 42 | 33.8 | 20 | 21.9
KCL-22 [20] | 89.7 | 112 | 125 | 102 | 108
KG-1 [21] | 114 | 118 | 124 | 132 | 127
KU-812 [23] | 91.7 | 120 | 112 | 89.8 | 98.9
LAMA-84 [22] | 89.5 | 120 | 113 | 95.1 | 102
ML-2 [19] | 106 | 116 | 114 | 108 | 101
MOLM-13 [28] | 113 | 120 | 120 | 105 | 93.5
MV4-11 [16] | 89 | 106 | 138 | 94.7 | 81.6
Mono-Mac-6 [25] | 108 | 105 | 111 | 84.9 | 98.3
NOMO-1 [18] | 95.3 | 112 | 114 | 101 | 105
SHI-1 [24] | 103 | 101 | 109 | 101 | 96.7
THP-1 [29] | 107 | 104 | 113 | 99.5 | 102

CCN(CC)C(=S)SSC(=S)N(CC)CC [Disulfiram]
Details | IC50 (cell viability) [µM]
BV-173 [11] | 0.778
HEL [15] | > 10
HL-60 [12] | > 10
K-562 [2] | 0.447
KCL-22 [5] | > 10
KG-1 [6] | 0.272
KU-812 [8] | > 10
LAMA-84 [7] | > 10
ML-2 [4] | 0.264
MOLM-13 [13] | > 10
MV4-11 [1] | 7.02
Mono-Mac-6 [10] | 0.171
NOMO-1 [3] | > 10
SHI-1 [9] | 0.0728
THP-1 [14] | 0.0708

cell viability [%]
Details | 1 nM | 10 nM | 100 nM | 1000 nM | 10000 nM
BV-173 [26] | 96 | 103 | 97.6 | 37.5 | -0.175
HEL [30] | 101 | 86.8 | 96.6 | 87.9 | 68
HL-60 [27] | 100 | 104 | 89.2 | 83.3 | 93.7
K-562 [17] | 90.2 | 99.1 | 89.8 | 29.7 | 70.9
KCL-22 [20] | 72.4 | 92.3 | 94.4 | 61.3 | 62.7
KG-1 [21] | 92.7 | 89.8 | 92.7 | 2.8 | 22
KU-812 [23] | 99.7 | 99.3 | 97 | 66 | 66.9
LAMA-84 [22] | 93.5 | 94.5 | 94.4 | 90.8 | 67.7
ML-2 [19] | 92 | 106 | 91.4 | 6.36 | 11.6
MOLM-13 [28] | 94.1 | 76.7 | 93.3 | 98.2 | 92.7
MV4-11 [16] | 94.1 | 114 | 98.3 | 88.7 | 53.5
Mono-Mac-6 [25] | 91.9 | 100 | 67.9 | 25.5 | 62.5
NOMO-1 [18] | 95.3 | 99.4 | 101 | 92 | 88.9
SHI-1 [24] | 87.7 | 92.8 | 44.8 | -0.354 | 65.1
THP-1 [29] | 94.5 | 95.6 | 48.1 | 30.5 | 57.4

From the supplement of paper PMC8671470
